Where two headings read alike, the source gives them in different places.
Columns and labels:
NLRP3 inflammasome = NLRP3 inflammasome (Homo sapiens, UniProt Q96P20); experiment: NLRP3 inflammasome activation assay in PBMCs (LPS priming, nigericin), IL-1β by ELISA; type: cell-based; design: Human peripheral blood mononuclear cells (PBMCs); host or cells: primary human PBMCs from healthy donors
Procedure: Some of the following assays were used to determine the inhibitory activity of the compounds on the NLRP3 inflammasome using a common inflammasome activation stimuli-nigericin.
Human peripheral blood mononuclear cells (PBMCs), consisting of lymphocytes (T, B and NK cells), monocytes and dendritic cells, were freshly isolated from human peripheral blood from healthy donors. Cells were obtained through an IRB approved donor program by iXCells Biotechnologies where all the donors were tested for bacterial and viral infections. Cells were purified from peripheral blood using ficoll gradient centrifugation.
Cells were then stimulated with 10 uM Nigericin (Sigma Aldrich; InvivoGen) for 1.5 h. Plates were centrifuged at 1,500 rpm for 3 minutes to pellet cells and supernatant was transferred into new plates for subsequent experiments.
For ELISA assays cells were seeded into 96-well plates. Post study, supernatants were removed and the levels of mature IL-1β, IL-18 and TNFα (Quantikine ELISA, R&D systems) were measured in cell conditioned media by ELISA according to manufacturer's instructions.

[1] = test system: LPS and nigericin stimulated cells; experiment: cells; type: cell-based; conditions: Homo sapiens, read-out: CTG protective IC50
Procedure: Viability of compound treated cells is measured using CellTiter-Glo® assay (Promega, Madison, Wis.) that measures the ATP content of cells which is proportional to the number of live cells within a well. This is a counter-screen to establish that the reduction of IL-1β levels in LPS and nigericin stimulated and compound treated cells is not due to cytotoxicity, but rather through the inhibition of the inflammasome pathway. Compounds inhibiting NRLP3 inflammasome activation ultimately increase the viability of LPS and nigericin stimulated cells by blocking NLRP3 mediated pyroptosis that would otherwise lead to cell lysis.

[2] = LPS 100 ng/mL 3 h, nigericin 10 uM 1.5 h, read-out: IC50 IL-1β
[3] = LPS and nigericin stimulated cells, CellTiter-Glo
[4] = LPS, nigericin, read-out: PBMC IL-1β IC50

Sequence of NLRP3 inflammasome (Q96P20 whole entry): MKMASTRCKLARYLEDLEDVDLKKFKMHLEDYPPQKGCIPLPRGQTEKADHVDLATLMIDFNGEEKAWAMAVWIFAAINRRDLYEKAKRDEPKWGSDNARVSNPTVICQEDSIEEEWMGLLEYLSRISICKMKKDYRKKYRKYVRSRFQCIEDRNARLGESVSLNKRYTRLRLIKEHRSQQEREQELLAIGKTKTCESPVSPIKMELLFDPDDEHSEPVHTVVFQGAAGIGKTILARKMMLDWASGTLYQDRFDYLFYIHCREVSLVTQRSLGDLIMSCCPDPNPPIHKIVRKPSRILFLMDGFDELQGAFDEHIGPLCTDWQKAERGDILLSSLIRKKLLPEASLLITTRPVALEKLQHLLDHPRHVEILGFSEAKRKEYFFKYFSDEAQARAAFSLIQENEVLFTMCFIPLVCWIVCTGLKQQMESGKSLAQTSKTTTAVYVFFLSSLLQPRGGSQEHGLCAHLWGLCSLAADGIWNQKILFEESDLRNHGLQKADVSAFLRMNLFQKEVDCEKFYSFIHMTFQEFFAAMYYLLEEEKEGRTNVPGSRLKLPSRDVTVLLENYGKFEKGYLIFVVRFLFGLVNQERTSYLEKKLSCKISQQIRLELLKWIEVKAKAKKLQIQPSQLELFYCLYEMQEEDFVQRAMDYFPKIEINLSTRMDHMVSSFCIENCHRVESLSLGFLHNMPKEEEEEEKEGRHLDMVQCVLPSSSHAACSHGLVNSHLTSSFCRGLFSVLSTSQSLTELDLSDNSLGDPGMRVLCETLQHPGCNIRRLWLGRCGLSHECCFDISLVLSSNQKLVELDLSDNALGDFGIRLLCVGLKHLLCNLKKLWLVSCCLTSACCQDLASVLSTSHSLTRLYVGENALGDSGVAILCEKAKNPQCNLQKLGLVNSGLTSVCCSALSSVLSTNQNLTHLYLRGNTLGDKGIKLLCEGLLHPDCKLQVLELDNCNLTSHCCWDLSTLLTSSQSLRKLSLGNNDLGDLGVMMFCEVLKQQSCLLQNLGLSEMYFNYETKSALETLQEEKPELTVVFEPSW

CC(C)c1cc(Cl)cc(C(C)C)c1NC(=O)NS(=O)(=O)c1cnn2c1OCCC2 [drawing 498]
IC50 (NLRP3 inflammasome; [2]): 100 to 1000 nM

CC1(O)COc2c(S(=O)(=O)NC(=O)Nc3c4c(cc5c3CCC5)CCC4)cnn2C1 (stereo not drawn)
IC50 [1, 3]: < 100 nM
IC50 (NLRP3 inflammasome; [4]): 100 to 1000 nM

O=C(Nc1c2c(cc3c1CCC3)CCC2)NS(=O)(=O)c1cc2n(n1)CCNC2=O
IC50 (NLRP3 inflammasome; [4]): 100 to 1000 nM

CC(=O)NCC1COc2c(S(=O)(=O)NC(=O)Nc3c4c(cc5c3CCC5)CCC4)cnn2C1 (stereo not drawn)
IC50 [1, 3]: < 100 nM
IC50 (NLRP3 inflammasome; [4]): < 100 nM

O=C(Nc1c2c(cc3c1CCC3)CCC2)NS(=O)(=O)c1cnn2c1OCC1(COC1)C2 [drawing 496]
IC50 (NLRP3 inflammasome; [2]): 100 to 1000 nM

NCC1COc2c(S(=O)(=O)NC(=O)Nc3c4c(cc5c3CCC5)CCC4)cnn2C1 (stereo not drawn)
IC50 (NLRP3 inflammasome; [4]): 100 to 1000 nM

O=C(Nc1c2c(c(Cl)c3c1CCC3)CCC2)NS(=O)(=O)c1cnn2c1OCCC2 [drawing 506]
IC50 (NLRP3 inflammasome; [2]): < 100 nM

O=C(Nc1c2c(cc3c1CCC3)CCC2)NS(=O)(=O)c1cnn2c1OCC(CNC(=O)C(F)(F)F)C2 (stereo not drawn)
IC50 (NLRP3 inflammasome; [4]): < 100 nM

O=C(Nc1c2c(cc3c1CCC3)CCC2)NS(=O)(=O)c1cnn2c1OCC(O)C2 (stereo not drawn) [drawing 500]
IC50 (NLRP3 inflammasome; [2]): < 100 nM

CN(C)[C@@H]1COc2c(S(=O)(=O)NC(=O)Nc3c4c(cc5c3CCC5)CCC4)cnn2C1
IC50 [1]: > 10000 nM

CC1CCn2ncc(S(=O)(=O)NC(=O)Nc3c4c(cc5c3CCC5)CCC4)c2O1 (stereo not drawn) [drawing 505]
IC50 (NLRP3 inflammasome; [2]): < 100 nM

O=C(Nc1c2c(cc3c1CCC3)CCC2)NS(=O)(=O)c1cnn2c1OCCCC2 [drawing 501]
IC50 (NLRP3 inflammasome; [2]): 100 to 1000 nM

CC1(C)COc2c(S(=O)(=O)NC(=O)Nc3c4c(cc5c3CCC5)CCC4)cnn2C1 [drawing 499]
IC50 (NLRP3 inflammasome; [2]): < 100 nM

COC1CN([C@@H]2COc3c(S(=O)(=O)NC(=O)Nc4c5c(cc6c4CCC6)CCC5)cnn3C2)C1
IC50 [1]: < 100 nM

CO[C@H]1COc2c(S(=O)(=O)NC(=O)Nc3c4c(c(F)c5c3CCC5)CCC4)cnn2C1
IC50 (NLRP3 inflammasome; [4]): < 100 nM

CC1(C)COc2c(S(=O)(=O)NC(=O)Nc3c4c(c(Cl)c5c3CCC5)CCC4)cnn2C1
IC50 (NLRP3 inflammasome; [4]): 100 to 1000 nM

O=C(Nc1c2c(cc3c1CCC3)CCC2)NS(=O)(=O)c1cnn2c1OCC(F)C2 (stereo not drawn) [drawing 503]
IC50 (NLRP3 inflammasome; [2]): 100 to 1000 nM

CN[C@H]1COc2c(S(=O)(=O)NC(=O)Nc3c(C(C)C)cc(F)cc3C(C)C)cnn2C1
IC50 (NLRP3 inflammasome; [4]): < 100 nM

COC1CN([C@H]2COc3c(S(=O)(=O)NC(=O)Nc4c5c(cc6c4CCC6)CCC5)cnn3C2)C1 [drawing 580]
IC50 [1]: < 100 nM

COc1ccc2cccnc2c1NC(=O)NS(=O)(=O)c1cnn2c1OCCC2
PBMC IL-1β IC50 (NLRP3 inflammasome; LPS, nigericin): No Curve

COC1COc2c(S(=O)(=O)NC(=O)Nc3c4c(cc5c3CCC5)CCC4)cnn2C1 (stereo not drawn) [drawing 504]
IC50 (NLRP3 inflammasome; [2]): < 100 nM

CC(C)c1cccc(C(C)C)c1NC(=O)NS(=O)(=O)c1cnn2c1OCCC2 [drawing 497]
IC50 (NLRP3 inflammasome; [2]): 1000 to 10000 nM

CC(C)c1cccc(C(C)C)c1NC(=O)NS(=O)(=O)c1cnn2c1OCCC2 [drawing 511]
IC50 (NLRP3 inflammasome; [4]): 1000 to 10000 nM

COC1CN(C2COc3c(S(=O)(=O)NC(=O)Nc4c5c(cc6c4CCC6)CCC5)cnn3C2)C1 (stereo not drawn)
IC50 [1]: < 100 nM

CC1CCOc2c(S(=O)(=O)NC(=O)Nc3c4c(cc5c3CCC5)CCC4)cnn21 (stereo not drawn) [drawing 502]
IC50 (NLRP3 inflammasome; [2]): 100 to 1000 nM

CN1CCn2ncc(S(=O)(=O)NC(=O)Nc3c4c(cc5c3CCC5)CCC4)c2C1=O
IC50 [1]: 1000 to 10000 nM

CN[C@@H]1COc2c(S(=O)(=O)NC(=O)Nc3c4c(cc5c3CCC5)CCC4)cnn2C1
IC50 [1]: 100 to 1000 nM

CN1CCn2nc(S(=O)(=O)NC(=O)Nc3c4c(cc5c3CCC5)CCC4)cc2C1=O
IC50 (NLRP3 inflammasome; [4]): 1000 to 10000 nM

CN(C)CC1COc2c(S(=O)(=O)NC(=O)Nc3c4c(cc5c3CCC5)CCC4)cnn2C1 (stereo not drawn)
IC50 [1]: 1000 to 10000 nM

O=C(Nc1c2c(c(Cl)c3c1CCC3)CCC2)NS(=O)(=O)c1cnn2c1OCCC2 [drawing 520]
IC50 (NLRP3 inflammasome; [4]): < 100 nM

CC1(C)Cc2cccc(NC(=O)NS(=O)(=O)c3cnn4c3OCCC4)c2O1
IC50 (NLRP3 inflammasome; [4]): > 10000 nM

CC(C)c1cc(Cl)cc(C(C)C)c1NC(=O)NS(=O)(=O)c1cnn2c1OCCC2 [drawing 512]
IC50 (NLRP3 inflammasome; [4]): 100 to 1000 nM

O=S(=O)(NC(=S)Nc1c2c(cc3c1CCC3)CCC2)c1cnn2c1OCCC2 [drawing 494]
IC50 (NLRP3 inflammasome; [2]): 1000 to 10000 nM

O=C(Nc1c2c(cc3c1CCC3)CCC2)NS(=O)(=O)c1cnn2c1OCC1(COC1)C2 [drawing 510]
IC50 (NLRP3 inflammasome; [4]): 100 to 1000 nM

— patent US11702428B2, “Chemical compounds as inhibitors of interleukin-1 activity” (Genentech, Inc., priority 2017, dated 2023)
